Some test systems named below: 786-0 renal; ACHN renal; HL-60(TB) leukemia; M14 melanoma; NCI-H522 lung; OVCAR-3 ovarian; OVCAR-5 ovarian; SF-539 CNS; T-47D breast; U251 CNS.
Assay in all cases: DTP human tumour cell line panel, 48 h

Structures are written as SMILES.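 Grown in 96-well plates, cells were treated for 48 hours with each compound at five concentrations. Insufficient inhibition: endpoint recorded as highest concentration tested. GI50 = concentration required for 50% inhibition of growth. At the TGI there is no net growth.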

This passage reports GI50 and TGI results from PubChem BioAssay (NCI).

A word on the GI50: it is the concentration giving 50% growth inhibition. As usually defined, the TGI is the concentration at which net growth stops. A higher TGI goes with lower sensitivity of the cells.

As for `O=C(N/N=C\c1cc(Br)cc(Br)c1O)N/N=C/c1cc(Br)cc(Br)c1O`, the GI50 was 10.1 µM in the assay with 786-0 renal; 4.06 µM in the assay with ACHN renal; 1.28 µM with HL-60(TB) leukemia; 4.29 µM in the assay on M14 melanoma; 3.08 µM in the assay on NCI-H522 lung; 4.03 µM in the assay with OVCAR-3 ovarian. Also, the GI50 was 10.6 µM in the assay on OVCAR-5 ovarian, 1.73 µM with SF-539 CNS, 4.02 µM with T-47D breast and 2.14 µM with U251 CNS. Further, the total growth inhibition concentration (TGI) is 23.1 µM in the assay with 786-0 renal; 13.5 µM with ACHN renal; 4.76 µM in the assay on HL-60(TB) leukemia; 19 µM in the assay on M14 melanoma; 13.8 µM in the assay with NCI-H522 lung; 16.3 µM in the assay with OVCAR-3 ovarian. For the same compound, the TGI was 27.6 µM in the assay on OVCAR-5 ovarian, 11 µM with SF-539 CNS, 17.7 µM in the assay on T-47D breast and 15.7 µM in the assay on U251 CNS.

For `C/C(=C\COc1ccc2ccc(=O)oc2c1)CCC(=O)C(C)(C)O`, the total growth inhibition concentration (TGI) in the assay with 786-0 renal is 43.3 µM; in the assay with ACHN renal, greater than 100 µM; in the assay on HL-60(TB) leukemia, 45.7 µM; in the assay with M14 melanoma it was 61.2 µM; in the assay on NCI-H522 lung, 43.6 µM; in the assay on OVCAR-3 ovarian, 46.4 µM. For the same compound, the total growth inhibition concentration (TGI) was greater than 100 µM in the assay with OVCAR-5 ovarian, 48.5 µM with SF-539 CNS, greater than 100 µM with T-47D breast and 47.4 µM in the assay on U251 CNS.

For the compound `NS(=O)(=O)c1ccc(N=Nc2cc3ccccc3c(C(=O)O)c2O)cc1`, the TGI with 786-0 renal is greater than 100 µM; with ACHN renal, 52.5 µM; in the assay with HL-60(TB) leukemia it was greater than 100 µM; in the assay with M14 melanoma, greater than 100 µM; in the assay with NCI-H522 lung, greater than 65.6 µM; in the assay with OVCAR-3 ovarian, greater than 87.6 µM. The total growth inhibition concentration (TGI) in the assay with OVCAR-5 ovarian is greater than 94.5 µM; in the assay on SF-539 CNS it was greater than 100 µM; with T-47D breast, greater than 100 µM; with U251 CNS, greater than 95.2 µM.

Take `O=C(CN1CCN(c2cc3c(cc2F)c(=O)c(C(=O)O)cn3C2CC2)CC1)Nc1ccc(C(=O)/C=C/c2ccccc2)cc1`: the GI50 was 4.5 µM in the assay with 786-0 renal; 3.3 µM in the assay on ACHN renal; 9.44 µM in the assay with HL-60(TB) leukemia; 5.22 µM in the assay on M14 melanoma; 1.7 µM in the assay with NCI-H522 lung; 3.65 µM in the assay with OVCAR-3 ovarian. Besides, the GI50 in the assay on OVCAR-5 ovarian was 5.35 µM; in the assay with SF-539 CNS, 3.6 µM; in the assay with T-47D breast, 6.66 µM; in the assay on U251 CNS, 2.92 µM. The concentration for total growth inhibition (TGI) with 786-0 renal is greater than 100 µM; in the assay with ACHN renal, 31.9 µM; with HL-60(TB) leukemia it was greater than 100 µM; with M14 melanoma it was greater than 100 µM; in the assay on NCI-H522 lung it was 7.78 µM; in the assay on OVCAR-3 ovarian, greater than 100 µM. In addition, the TGI with OVCAR-5 ovarian, in the assay on SF-539 CNS, in the assay with T-47D breast and with U251 CNS was greater than 100 µM each time.

On to `COc1cc2cc(Oc3ccc(NC(=O)Nc4cc(C(F)(F)F)cc(C(F)(F)F)c4)cc3)c(C)nc2cc1OCCN1CCCCC1`, for which the GI50 is 1.71 µM with 786-0 renal; 1.63 µM in the assay with ACHN renal; 2.25 µM in the assay with HL-60(TB) leukemia; 1.68 µM in the assay with M14 melanoma; 1.72 µM with NCI-H522 lung; 1.64 µM with OVCAR-3 ovarian. Further, the GI50 in the assay on OVCAR-5 ovarian is 1.63 µM; in the assay with SF-539 CNS it was 1.65 µM; in the assay on T-47D breast it was 1.85 µM; in the assay with U251 CNS, 1.79 µM. For the same compound, the TGI in the assay with 786-0 renal worked out at 3.25 µM; in the assay with ACHN renal, 2.99 µM; in the assay on HL-60(TB) leukemia it was 4.67 µM; in the assay on M14 melanoma it was 3.16 µM; in the assay with NCI-H522 lung, 3.46 µM; in the assay with OVCAR-3 ovarian, 3.03 µM. Further, the TGI in the assay on OVCAR-5 ovarian is 3.02 µM; with SF-539 CNS, 3.03 µM; with T-47D breast, 3.77 µM; in the assay on U251 CNS it was 3.41 µM.

On to `Nc1ccc(Sc2ccc3c4c2cccc4c(=O)n2c4ccccc4nc32)cc1`, for which the GI50 is 3.34 µM in the assay with 786-0 renal; 2.37 µM in the assay with ACHN renal; 3.71 µM in the assay on HL-60(TB) leukemia; 4.51 µM in the assay with M14 melanoma; 3.99 µM in the assay on NCI-H522 lung; 6.4 µM in the assay on OVCAR-3 ovarian. The GI50 in the assay with OVCAR-5 ovarian was 14.9 µM; in the assay on SF-539 CNS, 3.11 µM; with T-47D breast it was 3.87 µM; in the assay on U251 CNS, 4.13 µM. Moreover, the TGI with 786-0 renal was determined as 10.4 µM; with ACHN renal it was 10.2 µM; in the assay on HL-60(TB) leukemia, 12 µM; in the assay on M14 melanoma, 27.9 µM; in the assay with NCI-H522 lung it was 36.8 µM; with OVCAR-3 ovarian it was 24.4 µM. Further, the TGI with OVCAR-5 ovarian worked out at 46 µM; in the assay with SF-539 CNS it was 15.6 µM; in the assay on T-47D breast it was 33.4 µM; with U251 CNS it was 20.6 µM.

As to `COc1ccc(OC)c(/C=C/C(=O)c2ccc(SC)cc2)c1`, the GI50 was 7.53 µM in the assay with 786-0 renal; 17.2 µM in the assay on ACHN renal; 3.65 µM in the assay on HL-60(TB) leukemia; 12.6 µM in the assay on M14 melanoma; 6.91 µM with NCI-H522 lung; 0.0897 µM in the assay with OVCAR-3 ovarian. Further, the GI50 is 18.3 µM in the assay with OVCAR-5 ovarian, 2.55 µM in the assay on SF-539 CNS, 18.1 µM with T-47D breast and 12.7 µM in the assay on U251 CNS. Also, the TGI in the assay on 786-0 renal turned out to be 21.6 µM; with ACHN renal, 38.4 µM; in the assay with HL-60(TB) leukemia it was 12.6 µM; with M14 melanoma, 27.1 µM; in the assay on NCI-H522 lung, 23.4 µM; in the assay with OVCAR-3 ovarian, 2.7 µM. The total growth inhibition concentration (TGI) was 36.4 µM with OVCAR-5 ovarian, 6.99 µM in the assay on SF-539 CNS, greater than 100 µM in the assay with T-47D breast and 26.9 µM in the assay on U251 CNS.

In the case of `COC(=O)CCCCCCCCC(=O)c1c(C)[nH]c(/C=C2\N=C(c3ccc[nH]3)C=C2OC)c1C`, the GI50 was 8.53 µM in the assay on 786-0 renal; 20.6 µM in the assay on ACHN renal; 2.86 µM in the assay on HL-60(TB) leukemia; 2.64 µM with M14 melanoma; 8.55 µM with NCI-H522 lung; greater than 48.1 µM with OVCAR-3 ovarian. Also, the GI50 with OVCAR-5 ovarian is greater than 28.7 µM; in the assay on SF-539 CNS, greater than 55.1 µM; in the assay on T-47D breast, greater than 48.1 µM; in the assay on U251 CNS, 10.9 µM. The TGI was greater than 43.4 µM in the assay on 786-0 renal; greater than 72.7 µM with ACHN renal; 16.6 µM with HL-60(TB) leukemia; greater than 21.3 µM with M14 melanoma; greater than 69.9 µM in the assay on NCI-H522 lung; greater than 86.3 µM with OVCAR-3 ovarian. The TGI in the assay on OVCAR-5 ovarian is greater than 100 µM; with SF-539 CNS, greater than 100 µM; in the assay on T-47D breast it was greater than 89.3 µM; in the assay with U251 CNS, greater than 100 µM.
